Reference: article PMC9028889 (Pharmaceuticals, 2022)

Experiments:
MB231 cells [1] = assay: clonogenic survival / colony formation assay, MB231; format: cell-based, human; conditions: for EC50: Homo sapiens, clonogenic survival assay, TNBC cell line; for colony formation: MB231, 0, 1, 5, and 10 μM, 2 weeks
Description: (§1) MCF10A, T47D, and MB231 cells (5 × 10^3) were seeded in 24-well plates, and cells were exposed to different CMC conjugates at different concentrations (0, 1, 5, and 10 μM) for 2 weeks, changing the medium for every 3 days with respective CMC conjugates at the indicated concentrations. After 2 weeks, cells were washed with PBS and fixed in 100% methanol for 30 min followed by staining with KaryoMax Giemsa stain for 1 h. The unfound dyes were removed by washing the wells with water and dried overnight at room temperature. Finally, cells were lysed with lysis buffer (1% SDS in 0.2 N NaOH) for 5 min, and the absorbance of the released dye was measured at 630 nm, as described before. Values are shown as mean ± SD of three experiments with 3 wells in each, for a total of 9 repeats.

normal C57BL/6 mice = assay: toxicity study in normal C57BL/6 mice; format: in vivo; conditions: 50 and 100 mg/kg body, oral gavage daily for 7 days; for morphology (kidney, liver, lung): H&E
Description: We tested whether the synthesized conjugates are free of toxicity and safer to use in human normal cells and animal models. We treated human normal immortalized cell line (MCF10A) and normal C57BL/6 mice at different concentrations and time points.
Administration of CMC compounds to the mice: For toxicity studies, CMC1 and CMC2 conjugates at two different concentrations (50 and 100 mg/kg body) were given oral gavage daily for 7 days. At the end of the experiment, animals were euthanized, kidneys, liver, and lungs were analyzed for morphological changes. We also collected blood samples to measure Creatinine using a Creatinine assay kit (obtained from Millipore Sigma, Burlington, MA, USA, Catalog # MAK080), Alanine aminotransferase (ALT), using an ALT assay kit (obtained from the Millipore Sigma, Catalog #MAK053), Aspartate aminotransferase (AST), using an AST assay kit obtained from Millipore Sigma, Catalog #MAK055), and blood urea and nitrogen (BUN), using a urea nitrogen assay kit (obtained from ThermoFisher Scientific, Waltham, MA, USA, Catalog #EIABUN) as per the manufacturer’s instruction.

MCF10A cells [2] = assay: clonogenic survival / colony formation assay, MCF10A; format: cell-based, human; conditions: for EC50: MCF-10A, clonogenic survival assay, human normal immortalized mammary epithelial cell line; for colony formation: MCF10A, 0, 1, 5, and 10 μM, 2 weeks
Description: as §1

T47D cells [3] = assay: clonogenic survival / colony formation assay, T47D; format: cell-based, human; conditions: for EC50: Homo sapiens, T47D, clonogenic survival assay, ER+ BC cell line; for colony formation: T47D, 0, 1, 5, and 10 μM, 2 weeks
Description: as §1

MMTV–PyMT–Tg mice = assay: spontaneous mouse mammary tumor model; format: in vivo; conditions: 10 mg/kg body, three times a week by oral gavage for 7 weeks
Description: We chose MMTV–PyMT–Tg mouse mainly because the tumor formation and progression in this mouse is characterized by four different stages (hyperplasia, adenoma/mammary intra-epithelial neoplasia, early and late carcinoma) and also mimics human BC; the tumor develops first as ER-positive (ER^+) but ultimately becomes ER-negative BC (ER^− BC). We randomly assigned 6-week-old MMTV–PyMT–Tg mice into two groups (6 mice in each); one control and one CMC2 treated (10 mg/kg body, three times a week by oral gavage for 7 weeks). We measured the tumor volume twice a week. Tumor volume was calculated using the formula V = L × W^2/2, where L represents the largest tumor diameter, and W represents the smallest tumor diameter. Mice were euthanized after seven weeks of treatment, and tumor tissues were collected. The total tumor weight was measured. Tumor tissue sections were prepared and stained with Hematoxylin and Eosin (H&E) for morphometric analysis and Ki67 for cell proliferation analysis.
Similarly, six-week-old MMTV–PyMT–Tg mice were grouped into two groups—one control and one CMC2 treatment. The control mice received PBS, and the CMC2-treated group received CMC2 conjugate (10 mg/kg body by oral gavage, three times a week) for 7 weeks. We monitored animal weight and measured the tumor volume twice a week. At the end of the experimental period, mice were euthanized, and tumor tissues were harvested and measured for tumor weight. Tumor tissues were processed to extract RNA and protein and fixed in 10% buffered formalin phosphate solution (obtained from Fisher Scientific, Catalog #SF100-4) for morphological analysis.

MB231 cells [4] = assay: MTT cell proliferation assay, MB231; format: cell-based, human; conditions: MB231, 0, 1, 5, and 10 μM, 72 h
Description: (§2) MCF10A, T47D, and MB231 cells (5 × 10^3) were seeded in 96-well plates and incubator at 37 °C with 5% CO2 in MEGM, DMEM, and RPMI medium (100 μL), respectively. After 24 h, the medium was replaced with the CMC conjugates at different concentrations (0, 1, 5, and 10 μM) for 72 h. After 72 h, 10 μL MTT reagent was added to each well and incubated for 2 h for the formation of purple formazan and then added 100 μL detergent to dissociate the formazan precipitate and measured at 570 nm. Values are shown as mean ± SD of three experiments with 3 wells in each, a total of 9 repeats.

MCF10A cells [5] = assay: MTT cell proliferation assay, MCF10A; format: cell-based, human; conditions: MCF10A, 0, 1, 5, and 10 μM, 72 h
Description: as §2

T47D cells [6] = assay: MTT cell proliferation assay, T47D; format: cell-based, human; conditions: T47D, 0, 1, 5, and 10 μM, 72 h
Description: as §2

With `COc1cc(/C=C/C(=O)/C=C(O)/C=C/c2ccc(OC(=O)C(Cl)Cl)c(OC)c2)ccc1OC(=O)C(Cl)Cl` [CMC1, ((1E,3Z,6E)-3-Hydroxy-5-oxohepta-1,3,6-triene-1,7-diyl)bis(2-methoxy-4,1-phenylene) bis(2,2-dichloroacetate)] the EC50 (MB231 cells [1]) was 424 nM, the body weight (normal C57BL/6 mice) was “no changes” and the “kidney functions (serum creatinine and blood urea and nitrogen)” value (normal C57BL/6 mice) was “no changes”. The “liver functions (ALT and AST)” value (normal C57BL/6 mice) was “no changes”, the “morphology (kidney, liver, lung)” value (normal C57BL/6 mice) was “no changes” and the EC50 (MCF10A cells [2]) was 8980 nM. It also gave an EC50 (T47D cells [3]) of 1650 nM.

With `COc1cc(/C=C/C(=O)/C=C(O)/C=C/c2ccc(OC(=O)CNC(=O)C(Cl)Cl)c(OC)c2)ccc1OC(=O)CNC(=O)C(Cl)Cl` [CMC2, ((1E,3Z,6E)-3-Hydroxy-5-oxohepta-1,3,6-triene-1,7-diyl)bis(2-methoxy-4,1-phenylene) bis(2-(2,2-dichloroacetamido)acetate)] the EC50 (MB231 cells [1]) was 778 nM, the body weight (normal C57BL/6 mice) was “no changes” and the “kidney functions (serum creatinine and blood urea and nitrogen)” value (normal C57BL/6 mice) was “no changes”. The “liver functions (ALT and AST)” value (normal C57BL/6 mice) was “no changes”, the “morphology (kidney, liver, lung)” value (normal C57BL/6 mice) was “no changes” and the EC50 (MCF10A cells [2]) was 9680 nM. For the same molecule, the lung nodules (MMTV–PyMT–Tg mice) was “reducing”, the “normal body weight and organ histology” value (MMTV–PyMT–Tg mice) was “without affecting” and the overall survival rate (MMTV–PyMT–Tg mice) was “increased”. The “tumor cell proliferation (Ki67) in mammary and lung tumor tissue” value (MMTV–PyMT–Tg mice) was “inhibiting”, the tumor growth (MMTV–PyMT–Tg mice) was “significantly reduced” and the EC50 (T47D cells [3]) was 1420 nM.

Molecule `COc1cc(/C=C/C(=O)/C=C(O)/C=C/c2ccc(OC(=O)[C@H](C)NC(=O)C(Cl)Cl)c(OC)c2)ccc1OC(=O)[C@H](C)NC(=O)C(Cl)Cl` [CMC3, ((1E,3Z,6E)-3-Hydroxy-5-oxohepta-1,3,6-triene-1,7-diyl)bis(2-methoxy-4,1-phenylene) (2S,2’S)-bis(2-(2,2-dichloroacetamido)propanoate)] has an EC50 (MB231 cells [1]) of 518 nM, an EC50 (MCF10A cells [2]) of 9710 nM and an EC50 (T47D cells [3]) of 1600 nM.

`COc1cc(/C=C/C(=O)/C=C(O)/C=C/c2ccc(OC(=O)CCNC(=O)C(Cl)Cl)c(OC)c2)ccc1OC(=O)CCNC(=O)C(Cl)Cl` [CMC4, ((1E,3Z,6E)-3-Hydroxy-5-oxohepta-1,3,6-triene-1,7-diyl)bis(2-methoxy-4,1-phenylene) bis(3-(2,2-dichloroacetamido)propanoate)] showed an EC50 (MB231 cells [1]) of 1130 nM, a melting point of 140 to 142 °C and an EC50 (MCF10A cells [2]) of 8860 nM. For the same molecule, the EC50 (T47D cells [3]) was 1260 nM.

With `COc1cc(/C=C/C(=O)/C=C(O)/C=C/c2ccc(OC(=O)[C@H](Cc3ccccc3)NC(=O)C(Cl)Cl)c(OC)c2)ccc1OC(=O)[C@H](Cc1ccccc1)NC(=O)C(Cl)Cl` [CMC5, ((1E,3Z,6E)-3-Hydroxy-5-oxohepta-1,3,6-triene-1,7-diyl)bis(2-methoxy-4,1-phenylene) (2S,2’S)-bis(2-(2,2-dichloroacetamido)-3-phenylpropanoate)] the EC50 (MB231 cells [1]) was 838 nM, the EC50 (MCF10A cells [2]) was 9600 nM and the EC50 (T47D cells [3]) was 1240 nM.

For `COc1cc(/C=C/C(=O)/C=C(O)/C=C/c2ccc(OC(=O)CCCNC(=O)C(Cl)Cl)c(OC)c2)ccc1OC(=O)CCCNC(=O)C(Cl)Cl` [CMC6, ((1E,3Z,6E)-3-Hydroxy-5-oxohepta-1,3,6-triene-1,7-diyl)bis(2-methoxy-4,1-phenylene) bis(4-(2,2-dichloroacetamido)butanoate)], the EC50 (MB231 cells [1]) was 942 nM, the melting point was 130 to 132 °C and the EC50 (MCF10A cells [2]) was 9470 nM. For the same molecule, the EC50 (T47D cells [3]) was 1370 nM.

With `COc1cc(/C=C/C(=O)CC(=O)/C=C/c2ccc(O)c(OC)c2)ccc1O` [CUR, Curcumin, reference compound] the “cell viability / proliferation (MTT)” value (MB231 cells [4]) was “inhibited”, the “cell viability / proliferation (MTT)” value (MCF10A cells [5]) was “not” and the “cell viability / proliferation (MTT)” value (T47D cells [6]) was “inhibited”. For the same molecule, the colony formation (MB231 cells [1]) was “inhibited”, the colony formation (MCF10A cells [2]) was “not” and the colony formation (T47D cells [3]) was “inhibited”.

For `O=C(O)C(Cl)Cl` [DCA, Dichloroacetate, reference compound], the “cell viability / proliferation (MTT)” value (MB231 cells [4]) was “inhibited”, the “cell viability / proliferation (MTT)” value (MCF10A cells [5]) was “not” and the “cell viability / proliferation (MTT)” value (T47D cells [6]) was “inhibited”. For the same molecule, the colony formation (MB231 cells [1]) was “inhibited”, the colony formation (MCF10A cells [2]) was “not” and the colony formation (T47D cells [3]) was “inhibited”.
